Assay: UV-Vis absorption spectra
Assay type: physicochemical
Conditions: 50 μM dimerizer in PBS buffer (pH 7.4, 0.5% DMSO)
Procedure: FIG. 1: UV-Vis absorption spectra of TMP—PC—Cl (black) and 4-CmTMP—PC—Cl (red). A solution of 50 μM of the respective dimerizer in PBS buffer (pH 7.4, 0.5% DMSO) was subjected to UV-Vis absorption analysis (FIG. 1). 0.5% DMSO in PBS was used as the blank.
UV-Vis absorption spectra were recorded using SHIMADZU UV-2401PC UV-Vis Recording Spectrophotometer. A solution of 50 μM of the respective dimerizer in PBS buffer (pH 7.4, 0.5% DMSO) was subjected to UV-Vis absorption analysis (FIG. 1). 0.5% DMSO in PBS was used as the blank.

- absorption peak: 348.5 nm
Compound: COc1cc(COC(=O)NCCCOCCOCCOCCCNC(=O)COc2c(OC)cc(Cc3cnc(N)nc3N)cc2OC)c([N+](=O)[O-])cc1OCCOCCOCCOCCOCCOCCCCCCCl [TMP—PC—Cl, 4-((21-Chloro-3,6,9,12,15-pentaoxahenicosyl)oxy)-5-methoxy-2-nitrobenzyl (1-(4-((2,4-diaminopyrimidin-5-yl)methyl)-2,6-dimethoxyphenoxy)-2-oxo-7,10,13-trioxa-3-azahexadecan-16-yl)carbamate]
